Laboratory results reported in ChEMBL document CHEMBL1133866, “Discovery of human CCR5 antagonists containing hydantoins for the treatment of HIV-1 infection” (Bioorg Med Chem Lett, 2001).
Blank lines part the entries; values can stand above or below the compound they belong to.

Assays:
[1] = biological target: T1, C-C chemokine receptor type 5 (Homo sapiens, UniProt P51681); test: Percent inhibition of the [125I]-MIP-1 alpha binding towards C-C chemokine receptor type 5 stably expressed in Chinese hamster ovary (CHO) cells at a concentration of 1 uM; format: cell-based
Target sequence in this assay (P51681 whole entry, looked up): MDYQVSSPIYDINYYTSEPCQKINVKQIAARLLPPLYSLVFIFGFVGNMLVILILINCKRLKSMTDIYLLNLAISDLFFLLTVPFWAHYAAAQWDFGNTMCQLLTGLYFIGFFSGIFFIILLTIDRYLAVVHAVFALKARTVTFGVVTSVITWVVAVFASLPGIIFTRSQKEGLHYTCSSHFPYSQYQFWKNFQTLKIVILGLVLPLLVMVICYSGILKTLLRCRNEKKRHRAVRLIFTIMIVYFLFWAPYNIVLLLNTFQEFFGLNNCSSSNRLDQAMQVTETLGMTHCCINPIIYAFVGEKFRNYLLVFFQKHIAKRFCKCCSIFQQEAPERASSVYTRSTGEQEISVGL

[2] = biological target: T2, C-C chemokine receptor type 3 (Homo sapiens, UniProt P51677); test: Inhibitory activity against C-C chemokine receptor type 3
T2 sequence (P51677 whole entry): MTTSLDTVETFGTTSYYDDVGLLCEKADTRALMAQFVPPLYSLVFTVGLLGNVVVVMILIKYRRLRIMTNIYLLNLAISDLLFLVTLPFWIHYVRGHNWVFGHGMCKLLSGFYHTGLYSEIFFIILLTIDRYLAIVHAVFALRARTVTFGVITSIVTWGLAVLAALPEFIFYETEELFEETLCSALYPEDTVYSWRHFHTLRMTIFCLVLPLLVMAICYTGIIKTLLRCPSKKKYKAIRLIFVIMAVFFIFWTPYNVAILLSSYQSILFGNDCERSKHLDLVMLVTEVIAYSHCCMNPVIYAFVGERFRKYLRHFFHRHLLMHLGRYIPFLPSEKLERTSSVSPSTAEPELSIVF

[3] = biological target: T3, C-C chemokine receptor type 1 (Homo sapiens, UniProt P32246); test: Inhibitory activity against C-C chemokine receptor type 1
T3 sequence (P32246 whole entry): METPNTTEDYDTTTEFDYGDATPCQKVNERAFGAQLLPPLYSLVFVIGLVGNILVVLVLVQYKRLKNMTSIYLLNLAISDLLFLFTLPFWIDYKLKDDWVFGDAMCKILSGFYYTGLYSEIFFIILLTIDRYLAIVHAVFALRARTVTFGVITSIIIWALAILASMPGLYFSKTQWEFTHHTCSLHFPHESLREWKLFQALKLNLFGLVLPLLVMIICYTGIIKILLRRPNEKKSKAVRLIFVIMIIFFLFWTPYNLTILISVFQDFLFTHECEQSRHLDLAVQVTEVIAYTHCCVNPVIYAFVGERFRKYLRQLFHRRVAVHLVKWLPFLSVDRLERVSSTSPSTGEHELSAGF

[4] = biological target: C-X-C chemokine receptor type 4 (Homo sapiens, UniProt P61073); test: Inhibitory activity against C-X-C chemokine receptor type 4
C-X-C chemokine receptor type 4, sequence (P61073 whole entry): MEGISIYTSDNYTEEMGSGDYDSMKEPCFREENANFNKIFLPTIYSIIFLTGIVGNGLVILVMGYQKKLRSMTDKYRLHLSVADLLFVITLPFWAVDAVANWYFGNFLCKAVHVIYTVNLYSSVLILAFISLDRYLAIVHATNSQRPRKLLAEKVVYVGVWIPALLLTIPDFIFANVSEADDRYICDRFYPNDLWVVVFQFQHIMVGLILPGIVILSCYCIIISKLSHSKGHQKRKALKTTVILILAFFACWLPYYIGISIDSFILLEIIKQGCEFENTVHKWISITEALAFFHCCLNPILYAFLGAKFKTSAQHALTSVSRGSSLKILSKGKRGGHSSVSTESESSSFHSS

[5] = biological target: T1, C-C chemokine receptor type 5; test: Binding affinity against C-C chemokine receptor type 5 stably expressed in Chinese hamster ovary (CHO) cells using [125I]-MIP-1 alpha as the radioligand; format: cell-based
Target sequence in this assay (P51681 whole entry): as the sequence (P51681 whole entry, looked up) above

[6] = biological target: T4, C-C chemokine receptor type 4 (Homo sapiens, UniProt P51679); test: Inhibitory activity against C-C chemokine receptor type 4
T4 sequence (P51679 whole entry): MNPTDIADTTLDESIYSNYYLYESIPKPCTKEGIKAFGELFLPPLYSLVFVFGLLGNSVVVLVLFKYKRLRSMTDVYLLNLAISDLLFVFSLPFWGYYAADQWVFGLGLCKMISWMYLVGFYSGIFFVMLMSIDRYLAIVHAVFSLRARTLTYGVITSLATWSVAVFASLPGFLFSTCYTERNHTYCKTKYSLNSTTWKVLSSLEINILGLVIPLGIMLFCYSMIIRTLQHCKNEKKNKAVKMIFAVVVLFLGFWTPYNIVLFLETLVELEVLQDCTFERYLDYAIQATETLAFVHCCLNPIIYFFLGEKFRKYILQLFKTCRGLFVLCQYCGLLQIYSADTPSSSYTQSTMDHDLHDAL

[7] = biological target: C-C chemokine receptor type 2 (Homo sapiens, UniProt P41597); test: Inhibitory activity against C-C chemokine receptor type 2
C-C chemokine receptor type 2, sequence (P41597 whole entry): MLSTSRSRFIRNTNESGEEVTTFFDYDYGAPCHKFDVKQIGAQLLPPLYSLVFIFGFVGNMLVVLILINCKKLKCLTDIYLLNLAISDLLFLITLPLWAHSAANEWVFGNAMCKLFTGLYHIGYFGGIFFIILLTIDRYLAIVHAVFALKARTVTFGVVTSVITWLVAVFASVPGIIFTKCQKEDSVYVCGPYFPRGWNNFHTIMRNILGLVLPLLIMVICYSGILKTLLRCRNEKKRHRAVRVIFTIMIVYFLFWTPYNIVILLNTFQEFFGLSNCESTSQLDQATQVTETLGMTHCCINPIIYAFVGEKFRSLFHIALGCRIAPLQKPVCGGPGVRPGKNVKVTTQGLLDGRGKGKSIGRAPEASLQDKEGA

[8] = test system: Human immunodeficiency virus 1; test: Antiviral activity against HIV-1 viral replication in isolated peripheral blood mononuclear cells (PBMCs).; format: functional
[9] = biological target: T1, C-C chemokine receptor type 5; test: Percent inhibition of the [125I]-MIP-1 alpha binding towards C-C chemokine receptor type 5 stably expressed in Chinese hamster ovary (CHO) cells at a concentration of 10 uM; format: cell-based
Target sequence in this assay (P51681 whole entry, looked up): as the sequence (P51681 whole entry, looked up) above

[10] = biological target: T1, C-C chemokine receptor type 5; test: Percent inhibition of the [125I]-MIP-1 alpha binding towards C-C chemokine receptor type 5 stably expressed in Chinese hamster ovary (CHO) cells at a concentration of 1.7 uM; format: cell-based
Target sequence in this assay (P51681 whole entry, looked up): as above

- inhibition [1]: 55%
Compound: CS(=O)(=O)N1CC2(CCN(CCC(CN3C(=O)N[C@H](Cc4ccccc4)C3=O)c3cccc(Cl)c3)CC2)c2ccccc21 (stereo partly drawn)

- IC50 [2]: > 1000 nM
- IC50 [3]: > 1000 nM
- IC50 [4]: > 1000 nM
- IC50 [5]: 32 nM
- IC50 [6]: > 1000 nM
- IC50 [7]: > 1000 nM
Compound: C=CCN(C(=O)OCc1ccccc1)C1CCN(CCC(C)(CN2C(=O)N[C@H](Cc3c[nH]c4ccccc34)C2=O)c2cccc(Cl)c2)CC1 (stereo partly drawn)

- IC50 [2]: > 1000 nM
- IC50 [3]: > 1000 nM
- IC50 [4]: > 1000 nM
- IC50 [5]: 3 nM
- IC50 [6]: > 1000 nM
- IC50 [7]: > 1000 nM
Compound: C=CCN(C(=O)OCc1ccccc1)C1CCN(CCC(CN2C(=O)N[C@H](Cc3c[nH]c4ccccc34)C2=O)c2cccc(Cl)c2)CC1 (stereo partly drawn)
- IC95 [8]: 12500 nM

- inhibition [1]: 25%
Compound: O=C1N[C@H](Cc2c[nH]cn2)C(=O)N1CC(CCN1CCC(c2ccccc2)CC1)c1ccccc1 (stereo partly drawn)

- IC50 [5]: 200 nM
Compound: O=C1CC2(CCN(CCC(CN3C(=O)N[C@H](Cc4ccccc4)C3=O)c3cccc(Cl)c3)CC2)c2ccccc21 (stereo partly drawn)

- IC50 [2]: > 1000 nM
- IC50 [3]: > 1000 nM
- IC50 [4]: > 1000 nM
- IC50 [5]: 5 nM
- IC50 [6]: > 1000 nM
- IC50 [7]: > 1000 nM
Compound: C=CCN(C(=O)OCc1ccccc1)C1CCN(CCC(C)(CN2C(=O)N[C@H](Cc3c[nH]c4ccccc34)C2=O)c2ccccc2)CC1 (stereo partly drawn)
- IC95 [8]: > 3000 nM

- IC50 [5]: 25 nM
Compound: O=C1N[C@H](Cc2c[nH]c3ccccc23)C(=O)N1CC(CCN1CCC(c2ccccc2)CC1)c1cccc(Cl)c1 (stereo in doubt)

- inhibition [1]: 67%
Compound: O=C1N[C@H](Cc2csc3ccccc23)C(=O)N1CC(CCN1CCC(c2ccccc2)CC1)c1cccc(Cl)c1 (stereo partly drawn)

- IC50 [2]: > 1000 nM
- IC50 [3]: > 1000 nM
- IC50 [4]: > 1000 nM
- IC50 [5]: 4 nM
- IC50 [6]: > 1000 nM
- IC50 [7]: > 1000 nM
Compound: CCN(C(=O)OCc1ccccc1)C1CCN(CCC(C)(CN2C(=O)N[C@H](Cc3c[nH]c4ccccc34)C2=O)c2ccccc2)CC1 (stereo partly drawn)
- IC95 [8]: 12500 nM

- inhibition [9]: 43%
Compound: C[C@H]1NC(=O)N(CC(CCN2CCC(c3ccccc3)CC2)c2cccc(Cl)c2)C1=O (stereo partly drawn)

- inhibition [1]: 52%
Compound: CN1C(=O)N(CC(CCN2CCC(c3ccccc3)CC2)c2cccc(Cl)c2)C(=O)[C@H]1Cc1ccccc1 (stereo partly drawn)

- IC50 [5]: 80 nM
Compound: O=C1N[C@H](Cc2c[nH]c3ccccc23)C(=O)N1CC(CCN1CCC(c2ccccc2)CC1)c1cccc(Cl)c1 (single isomer, unassigned)

- IC50 [5]: 77 nM
Compound: CCN(C(=O)OCc1ccccc1)C1CCN(CCC(C)(CN2C(=O)N[C@H](Cc3c[nH]c4ccccc34)C2=O)c2cccc(Cl)c2)CC1 (stereo partly drawn)

- inhibition [1]: 71%
Compound: O=C1N[C@H](Cc2c[nH]c3ccccc23)C(=O)N1CC(CCN1CCC(c2ccccc2)CC1)c1ccccc1 (stereo in doubt; 24)

- IC50 [5]: 100 nM
Compound: CC(CCN1CCC(c2ccccc2)CC1)(CN1C(=O)N[C@H](Cc2c[nH]c3ccccc23)C1=O)c1cccc(Cl)c1 (stereo partly drawn)

Compound: O=C1CC2(CCN(CCC(CN3C(=O)N[C@H](c4ccccc4)C3=O)c3cccc(Cl)c3)CC2)c2ccccc21 (stereo partly drawn)
- IC50 [5]: 606 nM

- IC50 [2]: > 1000 nM
- IC50 [3]: > 1000 nM
- IC50 [4]: > 1000 nM
- IC50 [5]: 7 nM
- IC50 [6]: > 1000 nM
- IC50 [7]: > 1000 nM
Compound: C=CCN(C(=O)OCc1ccccc1)C1CCN(CCC(CN2C(=O)N[C@H](Cc3c[nH]c4ccccc34)C2=O)c2ccccc2)CC1 (stereo partly drawn)
- IC95 [8]: > 3000 nM

- inhibition [10]: 39%
Compound: O=C1N[C@H](Cc2ccccc2)C(=O)N1CC(CCN1CCC2(CC1)C[S+]([O-])c1ccccc12)c1cccc(Cl)c1 (stereo partly drawn)

- IC50 [2]: > 1000 nM
- IC50 [3]: > 1000 nM
- IC50 [4]: > 1000 nM
- IC50 [5]: 13 nM
- IC50 [6]: > 1000 nM
- IC50 [7]: > 1000 nM
Compound: CCN(C(=O)OCc1ccccc1)C1CCN(CCC(CN2C(=O)N[C@H](Cc3c[nH]c4ccccc34)C2=O)c2ccccc2)CC1 (stereo partly drawn)
- IC95 [8]: 25000 nM

- inhibition [10]: 24%
Compound: O=C1N[C@H](Cc2ccccc2)C(=O)N1CC(CCN1CCC2(CC1)CSc1ccccc12)c1cccc(Cl)c1 (stereo partly drawn)

- inhibition [1]: 80%
Compound: CC(CCN1CCC(c2ccccc2)CC1)(CN1C(=O)N[C@H](Cc2c[nH]c3ccccc23)C1=O)c1ccccc1 (stereo partly drawn)

- inhibition [1]: 43%
Compound: Cn1cc(C[C@H]2NC(=O)N(CC(CCN3CCC(c4ccccc4)CC3)c3cccc(Cl)c3)C2=O)c2ccccc21 (stereo partly drawn)

- inhibition [1]: 40%
Compound: O=C1[C@@H](Cc2ccccc2)N(Cc2ccccc2)C(=O)N1CC(CCN1CCC(c2ccccc2)CC1)c1cccc(Cl)c1 (stereo partly drawn)

- IC50 [5]: 250 nM
Compound: O=C1N[C@H](Cc2ccccc2)C(=O)N1CC(CCN1CCC(c2ccccc2)CC1)c1cccc(Cl)c1 (stereo partly drawn)

- inhibition [1]: 71%
Compound: O=C1N[C@H](Cc2c[nH]c3ccccc23)C(=O)N1CC(CCN1CCC(c2ccccc2)CC1)c1ccccc1 (stereo in doubt; 22)

Compound: O=C1CC2(CCN(CCC(CN3C(=O)N[C@@H](c4ccccc4)C3=O)c3cccc(Cl)c3)CC2)c2ccccc21 (stereo partly drawn)
- inhibition [1]: 52%

- IC50 [2]: > 1000 nM
- IC50 [3]: > 1000 nM
- IC50 [4]: > 1000 nM
- IC50 [5]: 2 nM
- IC50 [6]: > 1000 nM
- IC50 [7]: > 1000 nM
Compound: CCN(C(=O)OCc1ccccc1)C1CCN(CCC(CN2C(=O)N[C@H](Cc3c[nH]c4ccccc34)C2=O)c2cccc(Cl)c2)CC1 (stereo partly drawn)
- IC95 [8]: 12500 nM
